Data reported in patent US7034208B1, “Ahas inhibiting herbicide resistant wheat and method for selection thereof” (BASF Aktiengellschaft, priority 1991, dated 2006).

Key:
[1] = test system: AHAS (acetohydroxyacid synthase); test: AHAS Enzyme Assay I and II (M4 Plants); format: biochemical, wheat
Protocol: Enzyme Extraction: For the extraction of AHAS, 10 grams of tissue are powdered in liquid nitrogen and then homogenized in 100 mM potassium phosphate buffer (pH 7.5) containing 10 mM pyruvate, 5 mM MgCl2, 5 uM EDTA, 100 uM FAD, 1 mM valine, 1 mM leucine, 10% glycerol, and 10 mM cysteine. The homogenate is filtered through a nylon cloth (53 uM mesh) and centrifuged at 25,000 g for 20 minutes. The supernatant fraction is brought to 50% saturation with respect to (NH4)2SO4 and allowed to stand for 20-30 minutes on ice. It is then centrifuged at 25,000 g for 20 minutes and the supernatant is discarded. The ammonium sulfate pellet is dissolved in 50 mM potassium phosphate buffer (pH 7.5) containing 1 mM EDTA and 100 mM NaCl and used for the assay procedures.
AHAS Assay: AHAS activity is measured by estimation of the product, acetolactate, after conversion by decarboxylation in the presence of acid to acetoin. Standard reaction mixtures contain the enzyme in 50 mM potassium phosphate buffer (pH 7.0) containing 100 mM sodium pyruvate, 10 mM MgCl2, 1 mM thiamine pyrophosphate, and 10 uM FAD. This mixture is incubated at 37° C. for one hour after which time the reaction is stopped with the addition of […] to make a final concentration of 0.85% […] in the tube. The reaction product is allowed to decarboxylate at 60° C. for 15 minutes. The acetoin formed is determined by incubating with creatine (0.17%) and 1-napthol (1.7% in 4N NaOH) by the method of Westerfield (Westerfield, W. W., J. Biol. Chem., 161, 495-502 (1945)). Maximum color is observed by incubation at 60° C. for 15 minutes and then further incubation at room temperature for 15 minutes. The absorption of color complex is measured at 520 nm. Appropriate checks of direct acetoin formation during the enzyme assay are made. Each assay is run at least in duplicate and the experiments are repeated a minimum of two times.
Herbicide Application: Two flats are planted with approximately 100 seeds of each wheat selection (FS1, FS2, and FS4) and Fidel in sterile Metro Mix 350. Ten days later, each flat is sprayed postemergence with 62.5 g/ha of PURSUIT™. The spray delivery rate is 400 L/ha with a belt speed of 8.2 sec/rev using nozzle #65015E. Tween 20™ is used as a surfactant at 0.25% v/v. The plants are harvested three days later and assayed for AHAS activity.
Enzyme Extraction and AHAS Assay: As previously described.
Herbicide Application: As described above (Enzyme Assay I) except that the spray delivery rate is 950 l/ha with a belt speed of 12.8 sec/rev using nozzle #40015E.

[2] = test system: wheat variety Fidel and resistant selections FS2 and FS4; test: Preemergence Herbicide Tolerance; format: in vivo; details: pre-emergence application; plant growth after four weeks; versus Fidel
[3] = test system: M4 progeny of wheat selections FS1-FS4 and Fidel; test: Segregation Study, postemergence spray of M4 progeny; format: in vivo
Protocol: A study is performed to assay M4 progeny of the initial mutant wheat selections for imidazolinone resistance and homogeneity. M4 seeds, from M3 plants (derived from initial selections, FS1-FS4) which survive the two-step screen described previously, are used in this study. In addition, M4 seeds derived from M3 plants of each selection which are not screened (designated “stock” plants) are evaluated as well as Fidel controls. Seeds, derived from both stock and screened M3 plants representing each infloresence of each original wheat selection (FS1-FS4), are planted in flats at a rate of twenty-five seeds per row and eight rows per flat. One week after planting, when the seedlings are at Z12 (two leaf) stage, the plants are sprayed with 62.5 g/ha PURSUIT™. The herbicide is applied with a laboratory belt sprayer at a rate of 950 L/ha with a belt speed of 12.5 sec/rev. using sprayer nozzle #40015E at a height 18 inches above the plants. Tween 20™ is used as a surfactant at 0.25% v/v. Plants are evaluated three weeks after spraying.

[4] = test system: AHAS (acetohydroxyacid synthase); test: AHAS enzyme assay, Initial Assay (M3 Plants); format: biochemical, wheat
Protocol: Herbicide Application: M3 plants from the four initial mutant plants (FS1, FS2, FS3 and FS4), are tested for metabolic AHAS (acetohydroxyacid synthase) activity. […] When these plants are three weeks old, two plants of each mutant selection, FS1-FS4, receive a second application of PURSUIT™ at 62.5 g/ha while two of each selection are left unsprayed. Sprayed and unsprayed susceptible Fidel plants are also included in this experiment. […] Compound 9 is 2-acetamido-2,3-dimethyl-N-(p-tolylsulfonyl)butyramide, and is described in U.S. Pat. No. 4,883,914.
Enzyme Extraction: For the extraction of AHAS, 10 grams of tissue are powdered in liquid nitrogen and then homogenized in 100 mM potassium phosphate buffer (pH 7.5) containing 10 mM pyruvate, 5 mM MgCl2, 5 uM EDTA, 100 uM FAD, 1 mM valine, 1 mM leucine, 10% glycerol, and 10 mM cysteine. The homogenate is filtered through a nylon cloth (53 uM mesh) and centrifuged at 25,000 g for 20 minutes. […]
AHAS Assay: AHAS activity is measured by estimation of the product, acetolactate, after conversion by decarboxylation in the presence of acid to acetoin. […] The acetoin formed is determined by incubating with creatine (0.17%) and 1-napthol (1.7% in 4N NaOH) by the method of Westerfield (Westerfield, W. W., J. Biol. Chem., 161, 495-502 (1945)). […] The absorption of color complex is measured at 520 nm. […]

[5] = test system: wheat selection FS4 and Fidel; test: Field Trial II; format: in vivo; details: resistant selection FS4; postemergent; six weeks after treatment
wheat seeds = test: Seed soak screen (Example 1, Step 1, Experiments 1-4); format: in vivo
Protocol: The seeds are rinsed in sterile distilled water and then soaked in a herbicide concentration for a set period of time, as described below. Sets of twenty-five seeds are placed into 25 ml of the herbicide solution described below in a sterile 100×15 mm plastic petri dish and soaked for the designated time. The seeds are rinsed with water, dried with paper towels and planted (25 seeds/flat) approximately ½″ deep in 6×8 inch peat flats containing a moist, sterile, artificial soil, Metro Mix 350™ (Grace Company, Cambridge, Mass.). The treatments are evaluated at four weeks after treatment. The herbicides, rates and time periods evaluated are described below:
Each treatment is replicated four times.
Each treatment is replicated two times.
The protocol is as described above except that 35 seeds are soaked per petri dish; 25 seeds are still planted per flat. This experiment is repeated twice.

## CCc1cnc(C2=NC(C)(C(C)C)C(=O)N2)c(C(=O)O)c1 (stereo not shown) [PURSUIT, 5-ethyl-2-(4-isopropyl-4-methyl-5-oxo-2-imidazolin-2-yl)-nicotinic acid]
[1]; homozygous resistant mutant lines, unsprayed plants, compared to Fidel enzyme
  resistance of AHAS activity to inhibition: moderate levels of resistance
[1]; selections sprayed with 62.5 g/ha PURSUIT, compared to sprayed Fidel
  resistance of AHAS activity to inhibition: significantly higher level of resistance
[2]
  increased tolerance of FS2 and FS4: approximately 8 fold
[3]; Fidel, 62.5 g/ha postemergence at Z12 stage, three weeks after spraying, all plants die
  susceptibility of Fidel: completely susceptible
[3]; imidazolinone-resistant winter wheat selections, M4, 62.5 g/ha postemergent, greenhouse
  tolerance of resistant selections: excellent tolerance
[4]; FS1-FS4 M3 plants sprayed with 62.5 g/ha PURSUIT, compared to sprayed wild type
  resistance of AHAS to inhibition: dramatic increase in the AHAS resistance
[4]; resistant wheat lines, unsprayed M3 plants
  resistance of AHAS to inhibition: weak resistance
[5]
  effect on final plant height: no effect
Wheat seeds; seed soak for 72 hours
  concentration that prevents the survival of potential false positives: 1000 µM
Wheat seeds; seed soak for 96 hours
  concentration that prevents the survival of potential false positives: 750 µM
